Data on 5 compounds can be found in PMC11493442, “Sensory-Motor Neuropathy in Mfn2 T105M Knock-in Mice and Its Reversal by a Novel Piperine-Derived Mitofusin Activator” (The Journal of Pharmacology and Experimental Therapeutics, 2024).

Where two headings read alike, the source gives them in different places.

By EC50 is commonly meant the concentration needed to bring the measured effect to its halfway point. As usually defined, the AUC(0-t) is the area under the concentration-time curve up to a stated or last time point. Low values mean low exposure, high ones high exposure.

One series deals with Mfn2 null MEF cells. In words: Mitochondrial elongation (fusogenicity, mitochondrial aspect ratio) in Mfn2 null MEFs. The class given is cell-based, mouse. The protocol:
Mitochondrial polarization based on tetramethyl rhodamine ester fluorescence and fusogenicity based on an increase in mitochondrial aspect ratio were measured in static confocal images of live cells using methods that we have extensively validated ([Franco et al., 2016], [2020]; [Rocha et al., 2018]; [Zhang et al., 2022]). As necessary, red, green, and blue brightness, or rarely contrast, were adjusted in individual confocal images prior to merging to enhance clarity. All adjustments were performed across the entire image.
Mitochondrial elongation was assessed in Mfn2 null MEF cells after treatment with compounds at concentrations ranging from 0.5 nM–10 μM in DMSO for 14 h. Mitochondria were stained with MitoTracker Orange, and nuclei were costained with Hoechst before confocal microscope imaging; at least three independent experiments were performed. Mitochondrial aspect ratio (length/width) of at least 10 cells was measured for each experiment using National Institutes of Health ImageJ. […] Concentration-response curves were generated using a sigmoidal model in Prism 8 software. EC50 and Emax values and their variances were calculated from interpolated data of all replicate experiments in a series.

Series [1] has as its system Mfn2 T105M KI DRG neurons. In words: Mitochondrial motility in DRG neurons from Mfn2 T105M KI mice. Format: cell-based, mouse. Conditions: 100 nM for 48 hours. The protocol:
DRG neurons were isolated from ∼8-week-old Mfn2 T105M motor neuron transgenic mice, Mfn2 T105M KI mice, or Mfn1 fl/fl/Mfn2 fl/fl mice and cultured as described ([Dang et al., 2023]).
(§1) Mitochondrial motility in neuronal processes of cultured reprogrammed human motor neurons ([Abernathy et al., 2017]; [Dang et al., 2023]), mouse DRG neurons transduced with adeno-Mito-DS-Red2, or axons of ex vivo mouse sciatic nerves stained with tetramethyl rhodamine ester was measured using time-lapse confocal microscopy on a Nikon Eclipse Ti2 confocal microscope as described ([Franco et al., 2016], [2020]; [Rocha et al., 2018]). Mouse DRG neurons and reprogrammed human CMT2A motor neurons were transduced with adeno-Mito-DS-Red2 to visualize mitochondria; ex vivo sciatic nerve mitochondria were labeled with tetramethyl rhodamine ester (200 nM for 30 minutes at 37° C). Time-lapse imaging was carried out using confocal microscopy on a Nikon Eclipse Ti2 confocal microscope with 1 frame captured every 5 seconds for 180 frames (15 minutes). Kymographs and quantitative data were generated using the ImageJ plug-in: Velocity_Measurement_Tool.

Series [2] concerns Mfn2 T105M KI mouse sciatic nerve axons. The series can be described thus: Ex vivo mitochondrial motility in sciatic nerve axons after oral dosing. Conditions: 100 mg/kg by oral gavage. The protocol:
as §1

Another series deals with Mfn2 T105M knock-in mice. The series can be described thus: CMT2A phenotype reversal in Mfn2 T105M knock-in mice. The class given is in vivo, mouse. The protocol:
The creation of mice with human CMT2A mutations MFN2 T105M and M376V CRISPR-engineered into the mouse Mfn2 gene has been reported, as was absence of a cardiac phenotype ([Franco et al., 2023]). Neuromuscular phenotyping was performed for the current studies (vide infra). Results of male and female mice were combined as there were no observed sex differences.
Mfn2 T105M knock-in mice underwent evaluation at 10-week intervals to establish basal phenotype progression. 8015 or 8015-P2 treatment studies were performed after final baseline evaluations at 50 weeks of age. 8015 (transgenic MFN2 T105M model) or 8015-P2 (Mfn2 T105M knock-in model) were administered at doses of 50 mg/kg by oral gave once daily in the morning. Repeat phenotyping was performed after 4 and 8 weeks of treatment (transgenic model) or 6 weeks of treatment (knock-in model), after which the mice were killed by anesthesia overdose and tissue specimens obtained for histologic and ultrastructural studies, as described ([Franco et al., 2020]).
Rotarod studies were performed on mice initially familiarized and trained on the Rotarod (Ugo Basile, Gemonio, VA, Italy;# 47650) at a speed of 5 rpm. For evaluation, the initial speed of 5 rpm accelerated to 40 rpm over 120 seconds and then maintained 40 rpm for a maximum of 180 seconds. For each trial, five tests were performed with at least 5 minutes rest between each test. No trends were observed from test 1 to test 5. In total, three trials were performed over sequential days to account for variabilities of the Rotarod test and between days. For each mouse, the latency (time to falling off) of replicate tests for each trial day were averaged, and results of the three independent trials were averaged to obtain a result for that condition (i.e., age, genotype, and/or drug treatment).
Neuroelectrophysiologic recordings of hindlimb compound muscle action potentials (CMAP) were performed with a Viasys Healthcare Nicolet Biomedical instrument (Middleton, WI, USA Cat:# OL060954) using Viking Quest version 11.2 software. Nerve stimulation used 3.9 mV pulses of 0.002 milliseconds duration administered through a needle electrode placed at the proximal sciatic nerve through a posterior lumbar approach. Muscle depolarization was monitored using a loop electrode placed around the mid distal hindlimb, corresponding to the greatest girth of the tibialis and gastrocnemius muscles.
An inverted grid suspension test was used to assess grip strength and coordination. Mice were placed on a grid, which was slowly inverted no higher than three feet above a padded surface; the time to falling off (latency) was recorded up to a maximum of 500 seconds. Each mouse underwent at least three independent studies on different days, and the longest latency time was used ([Aartsma-Rus and van Putten, 2014]). Obese mice (>150% of mean weight for that condition) were preemptively excluded.
Mechanical sensitivity was measured using the von Frey test ([Martinov et al., 2013]). Mice were placed in a plexiglass chamber with a mesh grid floor and allowed to accommodate for at least 20 minutes or until exploratory behavior had ceased. The response to mechanical stimulation of hind paws used IITC Supertips filaments and an electronic von Frey anesthesiometer (IITC Life Science, Inc. Woodland Hills CA, USA). Filaments were applied to the footpads with a gradual increase in pressure until paw withdrawal was evoked; the maximum applied force was recorded. Paws of the left and right foot were alternately measured, with at least six measurements taken per animal and the results averaged for each mouse.
Confocal imaging of gastrocnemius myocyte cross-sectional area (wheat germ agglutinin staining) and synapse density (α-bungarotoxin staining) was performed as described ([Franco et al., 2020]). […]

Series [3] is described as follows: Enterohepatic recirculation study: oral PK without and with activated charcoal. The class given is in vivo, mouse. The following applies: mice; for AUC(0-t) / half-life: mouse, plasma, po, 5 mg/kg; for half-life: read-out: Plasma t1/2 (converted). The protocol: Enterohepatic recirculation (EHR) of 8015-P2 was tested by fasting mice overnight prior to administration of the compound (5 mg/kg) by oral gavage. 1 hour later, activated charcoal (2 g/kg) was administered by oral gavage to half of the mice; all mice were fed 2 hours after 8015-P2 dosing to induce gall bladder emptying. […] Areas under the concentration curves were calculated from the raw data; plasma half-times were estimated by linear regression of the second, slower elimination phase.

The nature of another series: Plasma PK in rats. Format: in vivo, rat. The following applies: oral administration. The protocol: Routine in vitro pharmacokinetic (PK) profiling of 8015 and its enantiomers (8015-P1 and 8015-P2) was performed at WuXi Apptec Co., Ltd. (Shanghai, China) using standard methods as described ([Dang et al., 2020], [2021]). In vivo PK profiling was performed by Frontage Laboratories (Exton PA, USA). The vehicle used for intravenous and oral PK studies was 12% sulfobutylether-β-cyclodextrin (SBE-β-CD; CyDex Pharmaceutical Inc., Lenexa KS, USA) in sterile water.

For series [4] the following is noted: ref Dang et al., cited from earlier work.
For series [5] the following is noted: ref Dang et al., 2021 (cpd 5b); cited from earlier work.
The conditions of series [6]: p.o. 50 mg/kg, ref Dang et al., cited from earlier work.
The next series has as its system mitofusins. Also noted: method as in Zhang et al., 2022. The following applies: ref Zhang et al., 2022; cited from earlier work.
On the set-up of series [7]: method as in earlier work. The following applies: ref Piyachaturawat et al., 1983, Bhardwaj et al., 2002, Lee et al., 2005, McNamara et al.; cited from earlier work.
Where [8] appears, read: 50 mg/kg once daily by oral gavage for 6 weeks.
The mark [9] stands for this setting: 5 mg/kg oral, with vs. without charcoal.
[10] abbreviates: 5 mg/kg oral, activated charcoal by gavage 1 hour after dosing.

Regarding `O=C(NC1CC1CCCCc1ccccc1)C1CCC(O)CC1` (stereo not shown) [Compound 8015-P2], the “Mitofusin activator potency (in words)” value in the series with Mfn2 null MEF cells was “subnanomolar potency”. The “Comparative fusogenic potency of the two 8015 isomers” value with Mfn2 null MEF cells (Mfn2-deficient mitochondria, n = 4 each) was “markedly more potent and effective than 8015-P1”. Further, the EC50 in the series with Mfn2 null MEF cells (Mus musculus, MEF, 95% confidence limits 439 - 863PM, n = 4, read-out: EC50 as a fusogenic factor (fusion of Mfn2-deficient mitochondria)) came to 0.623 nM. For the same compound, the “Fold greater fusogenic potency versus comparators” value with Mfn2 null MEF cells (versus trans-MiM111 or CPR1-B / previously described mitofusin activators) is listed as about 10 fold. Moreover, the “Mitochondrial motility in DRG neuronal processes” value in [1] is given as “corrected”. In addition, the “Mitochondrial motility in sciatic nerve axons, ex vivo” value in series [2] is “corrected mitochondrial dysmotility”. Further, in the series with Mfn2 T105M knock-in mice (setting [8]), the “Motor neuron functional metrics (Rotarod latency, inverted grasp)” value is “normalized”; the “Neuroelectrophysiological abnormality (CMAP amplitude)” value is on record as “normalized”; the “Sensory neuron metric (von Frey foot pad mechanical sensitivity)” value is reported as “normalized”. In addition, in the series with Mfn2 T105M knock-in mice (6 weeks of administration), the “Gastrocnemius myocyte cross-sectional area” value is listed as “reversed”, the Neuromuscular synapse density entry is reported as “reversed” and the “Proportion of tibialis nerve neurons with small axonal areas (lowest quartile)” value was “reversed”. For the same compound, in series [3] (setting [9]), the “Decrease of AUClast by charcoal” value amounted to 17% and the “Decrease of t1/2 by charcoal” value was 36%. Moreover, the Enterohepatic recirculation result in series [3] (oral) is recorded as “undergoes enterohepatic recirculation”. In series [3] (setting [10]), the AUC(0-t) was found to be 739 ng·h/mL and the half-life is 1.21 h. Also, in series [3] (5 mg/kg oral, without charcoal), the AUC(0-t) amounted to 887 ng·h/mL and the half-life is 1.88 h. For the same compound, the “Waxing and waning of plasma levels” value in the series “Plasma PK in rats” is recorded as “not observed”.
For the compound `O=C(N[C@H]1CC[C@H](O)CC1)C1CC1CCCc1ccccc1` (stereo partly drawn) [CPR1-B, N-(trans-4-hydroxycyclohexyl)-2-(3-phenylpropyl)cyclopropane-1-carboxamide], the “calc logP” value in series [4] (2021 (cpd 5b)) was 3.09. Besides, the “Aqueous solubility (pH 7.4)” value in series [5] is under 10 uM. Moreover, in series [6] (2021 (cpd 5b)), the Bioavailability was 59%.
In the case of `O=C(CCCCCc1ccccc1)N[C@H]1CC[C@H](O)CC1` [trans-MiM111, N-(trans-4-hydroxycyclohexyl)-6-phenylhexanamide], the “calc logP” value in series [4] (2020 (cpd 13b)) is recorded as 3.22. Further, the Bioavailability in series [6] (2020 (cpd 13b)) is 61%.
As for `O=C(NC1CC1CCCc1ccccc1)[C@H]1CC[C@H](O)CC1` (stereo partly shown) [Cpd 10], the Mitofusin activator activity result in the series with mitofusins was “functionally inactive”.
Turning to `O=C(/C=C/C=C/c1ccc2c(c1)OCO2)N1CCCCC1` [piperine], the “Mitofusin activation potency (in words)” value with mitofusins is given as “approximately the same potency as phenylhexanamide compounds”. Further, in series [7], the Cytotoxicity entry was “can be cytotoxic at higher concentrations”.
